Where a name gives a salt, the structure may show the parent alone. Read-outs that look alike come from different tables or passages of the source.
Assays:
human NK2 receptor = target: T1, human NK2 receptor (Homo sapiens, UniProt P21452); assay: Test for binding to human NK2 receptor
T1 construct: expressed in transfected cells; host or cells: COS cells
T1 sequence (P21452 1-398): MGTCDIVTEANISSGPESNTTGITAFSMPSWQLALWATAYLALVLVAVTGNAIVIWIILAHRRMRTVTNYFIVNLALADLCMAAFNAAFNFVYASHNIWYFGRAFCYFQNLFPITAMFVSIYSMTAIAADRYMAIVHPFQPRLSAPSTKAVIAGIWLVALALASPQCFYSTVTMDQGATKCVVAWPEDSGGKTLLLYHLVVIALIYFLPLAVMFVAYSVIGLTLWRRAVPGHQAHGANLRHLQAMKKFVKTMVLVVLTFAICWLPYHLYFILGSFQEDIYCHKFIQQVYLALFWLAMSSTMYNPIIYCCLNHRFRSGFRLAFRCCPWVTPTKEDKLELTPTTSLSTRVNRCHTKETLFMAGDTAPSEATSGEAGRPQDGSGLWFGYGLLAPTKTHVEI
Protocol: A solution of cryopreserved COS cells expressing human NK2 receptor was diluted with a buffer (50 mM tris-hydrochloride containing 0.04% of bovine serum albumin [BSA], pH 7.4) to obtain a concentration of 5.0×10^5 cells/mL and used as a crude membrane sample.
[^3H]SR 48968 (GE Healthcare Japan Corporation) was diluted with a mixture of 50 mM of tris-hydrochloride (pH 7.4), 6 mM of manganese chloride tetrahydrate, 800 μg/mL of BSA, 8 μg/mL of chymostatin, 8 μg/mL of leupeptin, 80 μg/mL of bacitracin, and 20 μg/mL of phosphoramidon. […] After the reaction, the membrane components were collected on a GF/B glass fiber filter paper (Whatman; Biomedical Research and Development Laboratories, Inc.) with an automated filtration system (Brandel; Biomedical Research and Development Laboratories, Inc.). The glass fiber filter paper was pretreated with a 0.1% polyethylenimine solution for 4 hours or longer to minimize non-specific binding. The filter collecting the membrane components was transferred to a small-size plastic vial containing 3 mL of Pico-Fluor, and the radioactivity was measured with a liquid scintillation counter (Tri-Carb 2900TR or 2300TR; Perkin Elmer).
The effect of binding to the NK2 receptor was calculated as the affinity (Ki) of the test substance for the NK2 receptor from a 50% binding dose (IC50) and the affinity (Kd) of [^3H]SR 48968 for the NK2 receptor.

substance P receptor = target: T2, substance P receptor (Cavia porcellus, UniProt P30547); assay: Test for binding to guinea-pig substance P receptor (crude lung membrane sample); conditions: crude guinea-pig lung membrane sample, [3H]substance P; Ki from IC50 and Kd; read-out: Ki
T2 construct: A preparation of a crude lung membrane sample was prepared; from tissue; host or cells: guinea-pig lung (crude membrane sample)
Protocol: A preparation of a crude lung membrane sample was prepared, and a test for binding of a test substance to the sample was performed according to the method described in EP0336230A2.
The binding effect of the test substance to a substance P receptor was calculated as an affinity (Ki) of the test substance for the substance P receptor from a 50% binding concentration (IC50) and an affinity (Kd) of [^3H]substance P for the substance P receptor.

human M3 receptor = target: T3, human M3 receptor (Homo sapiens, UniProt P20309); assay: Test for binding to human M3 receptor
T3 construct: expressed in transfected cells; host or cells: CHO cells
Protocol: A solution of cryopreserved CHO cells expressing human M3 receptor was diluted with a buffer (50 mM tris-hydrochloride containing 0.5 mM of EDTA, pH 7.4) to obtain 5.0×10^5 of cells/mL and used as a crude membrane sample.
[N-methyl-^3H]-(−)-Scopolamine methyl chloride (GE Healthcare Japan Corporation) was diluted with 50 mM of tris-hydrochloride containing 0.5 mM of EDTA (pH 7.4), a test substance and 250 μL of the crude membrane sample solution were added to 250 μL of the mixture, and the mixture was incubated at room temperature for 60 minutes. […] The glass fiber filter paper was pretreated with a 0.1% polyethylenimine solution for 4 hours or longer to minimize non-specific binding. The filter collecting membrane components was transferred to a small-size plastic vial containing 3 mL of Pico-Fluor, and the radioactivity was measured with a liquid scintillation counter (Tri-Carb 2900TR or 2300TR; Perkin Elmer).
The effect of binding to the M3 receptor was calculated as the affinity (Ki) of the test substance for the M3 receptor from a 50% binding dose (IC50) and the affinity (Kd) of [N-methyl-^3H]-(−)-Scopolamine methyl chloride for the M3 receptor.

[1] = COS cells expressing human NK2 receptor, [3H]SR 48968 1 nM, Ki from IC50 and Kd, read-out: Ki
[2] = CHO cells expressing human M3 receptor, [N-methyl-3H]-(-)-Scopolamine methyl chloride 0.5 nM, Ki from IC50 and Kd, read-out: Ki

T2 sequence (P30547 whole entry): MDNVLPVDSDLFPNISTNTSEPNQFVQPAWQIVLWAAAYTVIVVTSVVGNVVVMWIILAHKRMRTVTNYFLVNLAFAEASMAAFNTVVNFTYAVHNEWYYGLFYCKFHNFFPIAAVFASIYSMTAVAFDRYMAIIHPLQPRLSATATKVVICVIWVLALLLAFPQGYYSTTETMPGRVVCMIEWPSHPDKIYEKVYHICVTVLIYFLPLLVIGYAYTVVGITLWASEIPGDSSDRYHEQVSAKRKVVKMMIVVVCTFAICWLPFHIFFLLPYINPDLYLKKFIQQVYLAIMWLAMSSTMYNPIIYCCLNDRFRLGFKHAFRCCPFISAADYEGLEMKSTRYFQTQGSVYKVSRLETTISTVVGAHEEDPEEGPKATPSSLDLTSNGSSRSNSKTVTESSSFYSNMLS
T3 sequence (P20309 whole entry): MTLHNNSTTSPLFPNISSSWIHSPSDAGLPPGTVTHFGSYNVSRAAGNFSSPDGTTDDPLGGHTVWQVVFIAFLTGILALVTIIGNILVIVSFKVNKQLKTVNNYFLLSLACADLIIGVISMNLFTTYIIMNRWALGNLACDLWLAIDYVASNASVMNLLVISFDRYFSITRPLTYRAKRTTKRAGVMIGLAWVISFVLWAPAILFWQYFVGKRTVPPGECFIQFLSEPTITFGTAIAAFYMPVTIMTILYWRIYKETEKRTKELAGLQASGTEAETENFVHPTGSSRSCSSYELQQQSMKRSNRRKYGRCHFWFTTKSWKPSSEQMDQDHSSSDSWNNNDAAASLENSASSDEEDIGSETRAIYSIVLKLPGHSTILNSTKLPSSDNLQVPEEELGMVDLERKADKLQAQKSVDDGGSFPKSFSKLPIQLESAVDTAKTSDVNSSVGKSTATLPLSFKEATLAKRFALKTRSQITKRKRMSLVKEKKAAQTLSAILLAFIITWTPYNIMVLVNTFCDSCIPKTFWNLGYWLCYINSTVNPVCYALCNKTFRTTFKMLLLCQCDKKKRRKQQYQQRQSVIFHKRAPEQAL

Cc1nc(N(C)CCCCCC(=O)N(C)CCN2CCC(OC(=O)Nc3ccccc3-c3ccccc3)CC2)sc1C(=O)N(C)CCCN(C)C(=O)CO[C@H]1Cc2ccccc2C12CCN(CC[C@@]1(c3ccc(F)cc3)CN(C(=O)c3cc(C(F)(F)F)cc(C(F)(F)F)c3)CO1)CC2 [Example 106, 1-{2-[{6-[{5-[{3-[({[(2S)-1′-{2-[(5R)-3-[3,5-Bis(trifluoromethyl)benzoyl]-5-(4-fluorophenyl)-1,3-oxazolidin-5-yl]ethyl}-2,3-dihydrospiro[indene-1,4′-piperidin]-2-yl]oxy}acetyl)(methyl)amino]propyl}(methyl)carbamoyl]-4-methyl-1,3-thiazol-2-yl}(methyl)amino]hexanoyl}(methyl)amino]ethyl}piperidin-4-yl biphenyl-2-ylcarbamate trihydrochloride]
Ki (human NK2 receptor): 0.34 nM | Ki (substance P receptor): 3.1 nM | Ki (human M3 receptor): 1.3 nM

CN(CCN1CCC(OC(=O)Nc2ccccc2-c2ccccc2)CC1)C(=O)CCCCCNc1ccc(NC(=O)CCCN(C)C(=O)CO[C@H]2Cc3ccccc3C23CCN(CC[C@@]2(c4ccc(F)cc4)CN(C(=O)c4cc(C(F)(F)F)cc(C(F)(F)F)c4)CO2)CC3)cc1 [Example 82, 1-{2-[(6-{[4-({4-[({[(2S)-1′-{2-[(5R)-3-[3,5-Bis(trifluoromethyl)benzoyl]-5-(4-fluorophenyl)-1,3-oxazolidin-5-yl]ethyl}-2,3-dihydrospiro[indene-1,4′-piperidin]-2-yl]oxy}acetyl)(methyl)amino]butanoyl}amino)phenyl]amino}hexanoyl)(methyl)amino]ethyl}piperidin-4-yl biphenyl-2-ylcarbamate trihydrochloride]
Ki (human NK2 receptor): 0.6 nM | Ki (substance P receptor): 4.5 nM | Ki (human M3 receptor): 1.6 nM

CN(CCN1CCC(OC(=O)Nc2ccccc2-c2ccccc2)CC1)C(=O)CCCCCNc1ccc(C(=O)N(C)CCCN(C)C(=O)CO[C@H]2Cc3ccccc3C23CCN(CC[C@@]2(c4ccc(F)cc4)CN(C(=O)c4cc(C(F)(F)F)cc(C(F)(F)F)c4)CO2)CC3)cc1F [Example 13, 1-(2-{[6-({4-[{3-[({[(2S)-1′-{2-[(5R)-3-[3,5-Bis(trifluoromethyl)benzoyl]-5-(4-fluorophenyl)-1,3-oxazolidin-5-yl]ethyl}-2,3-dihydrospiro[indene-1,4′-piperidin]-2-yl]oxy}acetyl)(methyl)amino]propyl}(methyl)carbamoyl]-2-fluorophenyl}amino)hexanoyl](methyl)amino}ethyl)piperidin-4-yl biphenyl-2-ylcarbamate trihydrochloride]
Ki (human NK2 receptor): 0.65 nM | Ki (substance P receptor): 2.6 nM | Ki (human M3 receptor): 1.2 nM

Cc1nc(N(C)CCCCCC(=O)N(C)CCN2CCC(OC(=O)Nc3ccccc3-c3ccccc3)CC2)sc1C(=O)N(C)CCN(C)C(=O)CO[C@H]1Cc2ccccc2C12CCN(CC[C@@]1(c3ccc(F)cc3)CN(C(=O)c3cc(C(F)(F)F)cc(C(F)(F)F)c3)CO1)CC2 [Example 108, 1-{2-[{6-[{5-[{2-[({[(2S)-1′-{2-[(5R)-3-[3,5-Bis(trifluoromethyl)benzoyl]-5-(4-fluorophenyl)-1,3-oxazolidin-5-yl]ethyl}-2,3-dihydrospiro[indene-1,4′-piperidin]-2-yl]oxy}acetyl)(methyl)amino]ethyl}(methyl)carbamoyl]-4-methyl-1,3-thiazol-2-yl}(methyl)amino]hexanoyl}(methyl)amino]ethyl}piperidin-4-yl biphenyl-2-ylcarbamate trihydrochloride]
Ki (human NK2 receptor): 0.79 nM | Ki (substance P receptor): 1.3 nM | Ki (human M3 receptor): 3 nM

CN(CCN1CCC(OC(=O)Nc2ccccc2-c2ccccc2)CC1)C(=O)CCCCCCNc1ccc(C(=O)N(C)CCCN(C)C(=O)CO[C@H]2Cc3ccccc3C23CCN(CC[C@@]2(c4ccc(F)cc4)CN(C(=O)c4cc(C(F)(F)F)cc(C(F)(F)F)c4)CO2)CC3)cc1.Cl.Cl.Cl [Example 39, 1-(2-{[7-({4-[{3-[({[(2S)-1′-{2-[(5R)-3-[3,5-Bis(trifluoromethyl)benzoyl]-5-(4-fluorophenyl)-1,3-oxazolidin-5-yl]ethyl}-2,3-dihydrospiro[indene-1,4′-piperidin]-2-yl]oxy}acetyl)(methyl)amino]propyl}methyl)carbamoyl]phenyl}amino)heptanoyl](methyl)amino}ethyl)piperidin-4-yl biphenyl-2-ylcarbamate trihydrochloride]
Ki (human NK2 receptor; [1]): 0.82 nM | Ki (substance P receptor): 1.2 nM | Ki (human M3 receptor; [2]): 1.4 nM

CN(CCN1CCC(OC(=O)Nc2ccccc2-c2ccccc2)CC1)C(=O)CCCCCN(C)c1ccc(C(=O)N(C)CCCN(C)C(=O)CO[C@H]2Cc3ccccc3C23CCN(CC[C@@]2(c4ccc(F)cc4)CN(C(=O)c4cc(C(F)(F)F)cc(C(F)(F)F)c4)CO2)CC3)s1 [Example 8, 1-{2-[{6-[{5-[{3-[({[(2S)-1′-{2-[(5R)-3-[3,5-Bis(trifluoromethyl)benzoyl]-5-(4-fluorophenyl)-1,3-oxazolidin-5-yl]ethyl}-2,3-dihydrospiro[indene-1,4′-piperidin]-2-yl]oxy}acetyl)(methyl)amino]propyl}(methyl)carbamoyl]-2-thienyl}(methyl)amino]hexanoyl}(methyl)amino]ethyl}piperidin-4-yl biphenyl-2-ylcarbamate]
Ki (human NK2 receptor; [1]): 0.38 nM | Ki (substance P receptor): 2.6 nM | Ki (human M3 receptor; [2]): 1.9 nM

CN(CCN1CCC(OC(=O)Nc2ccccc2-c2ccccc2)CC1)C(=O)CCCC1CCN(c2ccc(C(=O)N(C)CCCN(C)C(=O)CO[C@H]3Cc4ccccc4C34CCN(CC[C@@]3(c5ccc(F)cc5)CN(C(=O)c5cc(C(F)(F)F)cc(C(F)(F)F)c5)CO3)CC4)cc2)CC1 [Example 66, 1-(2-{[4-(1-{4-[{3-[({[(2S)-1′-{2-[(5R)-3-[3,5-Bis(trifluoromethyl)benzoyl]-5-(4-fluorophenyl)-1,3-oxazolidin-5-yl]ethyl}-2,3-dihydrospiro[indene-1,4′-piperidin]-2-yl]oxy}acetyl)(methyl)amino]propyl}methyl)carbamoyl]phenyl}piperidin-4-yl)butanoyl](methyl)amino}ethyl)piperidin-4-yl biphenyl-2-ylcarbamate trihydrochloride]
Ki (human NK2 receptor; [1]): 0.86 nM | Ki (substance P receptor): 2.1 nM | Ki (human M3 receptor; [2]): 1.5 nM

CN(CCN1CCC(OC(=O)Nc2ccccc2-c2ccccc2)CC1)C(=O)CCCCCNCc1ccc(C(=O)N(C)CCCN(C)C(=O)CO[C@H]2Cc3ccccc3C23CCN(CC[C@@]2(c4ccc(F)cc4)CN(C(=O)c4cc(C(F)(F)F)cc(C(F)(F)F)c4)CO2)CC3)nc1 [Example 7, 1-{2-[{6-[({6-[{3-[({[(2S)-1′-{2-[(5R)-3-[3,5-Bis(trifluoromethyl)benzoyl]-5-(4-fluorophenyl)-1,3-oxazolidin-5-yl]ethyl}-2,3-dihydrospiro[indene-1,4′-piperidin]-2-yl]oxy}acetyl)(methy)amino]propyl}(methyl)carbamoyl]pyridin-3-yl}methyl)amino]hexanoyl}(methyl)amino]ethyl}piperidin-4-yl biphenyl-2-ylcarbamate]
Ki (human NK2 receptor; [1]): 0.17 nM | Ki (substance P receptor): 0.57 nM | Ki (human M3 receptor; [2]): 0.9 nM
